Results on four compounds are retold here after PMC9000482, “Inhibition of Aldose Reductase by Ginsenoside Derivatives via a Specific Structure Activity Relationship with Kinetics Mechanism and Molecular Docking Study” (Molecules, 2022).

Assay [1] concerns the target T1, human recombinant aldose reductase (HRAR) (Homo sapiens, UniProt P15121).
T1 construct: purchased Wako Chemicals (Osaka, Japan)
Description: HRAR inhibition assay (DL-glyceraldehyde substrate). It counts as biochemical. On the procedure: HRAR inhibition was studied according to Nishimura et al.. AR action was studied by measuring the reduction in NADPH absorption at 340 nm over a period of 1 min on a UV/visible spectrophotometer (Ultrospec®2100pro, Biochrom, Holliston, MA, USA). For HRAR inhibition, the HRAR enzyme (0.4 units), was used in all enzyme inhibition evaluations. […] The inhibition percentage (%) was measured as designated in the RLAR assay. The DA sample/min value characterizes the decrease in absorbance for 1 min with the test samples and substrate. The ability of each sample to inhibit HRAR was observed as an IC50 value (µM) and measured from the log-dose inhibition curve.

The target in assay [2] is T2, rat lens aldose reductase (RLAR) (Rattus norvegicus, UniProt P07943).
T2 construct: from tissue; host or cells: lens of Sprague-Dawley rats (supernatant of homogenate)
The experiment in a line: RLAR inhibitory activity assay (rat lens homogenate, DL-glyceraldehyde substrate). It counts as biochemical. On the procedure:
A rat lens homogenate was prepared with minor modifications according to the method reported by Hayman et al.. Briefly, the lenses were removed from the eyes of Sprague-Dawley rats weighing 250–280 g. They were homogenized in sodium phosphate buffer (pH 6.2) that was prepared with dibasic sodium phosphate (Na2HPO4∙H2O, 0.66 g) and monobasic sodium phosphate (NaH2PO4∙H2O, 1.27 g) in 100 mL of double-distilled H2O. The homogenate was clarified by centrifugation at 10,000 rpm at 4 °C for 20 min and the resultant supernatant was frozen until use. A crude AR homogenate with a specific activity of 6.5 U/mg was used in all enzyme inhibition evaluations. The reaction solution consisted of 620 µL of 100 mM sodium phosphate buffer (pH 6.2), 90 µL of AR homogenate, 90 µL of 1.6 mM NADPH, and 9 µL of sample, while the substrate included 90 µL of 50 mM DL-glyceraldehyde. […] AR activity was determined by measuring the decrease in NADPH absorption at 340 nm over a 4 min period on an Ultrospec®2100pro UV/Visible spectrophotometer. SWIFT II Applications software (Amersham Biosciences, NJ, USA) was used for all data analyses. The inhibition percentage (%) was calculated as follows in Equation (1):[1 − (∆Asample/min − ∆Ablank/min)/(∆Acontrol/min − ∆Ablank/min)] × 100(1) in which ∆Asample/min represents the test sample and substrate’s reduction in absorbance over 4 min, and ∆A control/min represents the same reduction in absorbance, but with 100% DMSO (dimethyl sulfoxide) rather than the test sample.

In assay [3] the test system is sorbitol accumulation in rat lens. The experiment in a line: Lens culture and intracellular sorbitol measurement (ex vivo). It counts as cell-based, Sprague-Dawley rats. As to conditions: 25 mM glucose, 6 days, sample 5 μg/mL, mean ± SD (n = 3); for inhibition at 5 µg/mL: 144 h.
Assay [4] addresses T2, rat lens aldose reductase (RLAR). The experiment in a line: Enzyme kinetics of RLAR inhibition (Lineweaver-Burk and Dixon plots). It counts as biochemical. The note with it: for RLAR Mode of Inhibition: Lineweaver-Burk plot. On the procedure: (§1) Enzyme inhibition with different concentrations ([…]) was assessed by monitoring the effects of different concentrations of the substrate. The following concentrations of test ginsenosides were used in the RLAR kinetics analysis: 0, 2, 10, and 50 µM for protopanaxadiol; 0, 0.5, 2.5, and 10 µM for (20S) ginsenoside Rg3; 0, 0.5, 2.5, and 10 µM for (20R) ginsenoside Rg3; 0, 0.1, 0.5, and 2.5 µM for ginsenoside Rh2; 0, 2, 10, and 50 µM for protopanaxatriol; 0, 0.8, 4, and 20 µM for ginsenoside Rf; 0, 0.8, 4, and 20 µM for (20S) ginsenoside Rg2, and 0, 0.5, 2.5, and 10 µM for ginsenoside Rh1. Using Lineweaver-Burk double reciprocal plots, the inhibition type was determined using various concentrations of DL-glyceraldehyde (5, 10, and 20 mM) for HRAR as a substrate in the presence of different concentrations of the active test ginsenosides. The concentrations of test ginsenosides in the HRAR kinetics analysis were as follows: 0, 0.1, 0.5, and 2.5 µM for protopanaxadiol; 0, 0.5, 2, and 10 µM for (20S) ginsenoside Rg3; 0, 1, 5, and 20 µM for (20R) ginsenoside Rg3; 0, 0.5, 2.5, and 10 µM for ginsenoside Rh2; 0, 0.1, 0.5, and 2.5 µM for compound K; 0, 1, 5, and 10 µM for protopanaxatriol; 0, 0.5, 4, and 20 µM for (20R) ginsenoside Rg2, and 0, 0.2, 2, and 5 µM for ginsenoside Rh1. The Dixon plot is a graphical method [1/enzyme velocity (1/V)] against inhibitor concentration [I] used to determine the type of enzyme inhibition; it was used to identify the dissociation or inhibition constant (Ki) for the enzyme-inhibitor complex. Dixon plots (single reciprocal plots) for RLAR and HRAR inhibition were obtained in the presence of 100, 50, and 10 mM RLAR, and 20, 10, and 5 mM HRAR DL-glyceraldehyde substrate. Thus, the type of enzyme inhibition was determined by interpreting the Lineweaver-Burk plots, and the inhibition constants (Ki) were determined by interpreting the Dixon plots.

In assay [5] the target is T1, human recombinant aldose reductase (HRAR). Description: Enzyme kinetics of HRAR inhibition (Lineweaver-Burk and Dixon plots). It counts as biochemical. The note with it: for HRAR Mode of Inhibition: Lineweaver-Burk plot. On the procedure: as §1
[6] abbreviates: substrate DL-glyceraldehyde, mean ± S.E.M. of triplicate experiments, read-out: HRAR IC50.
Where [7] appears, read: rat lens homogenate, substrate DL-glyceraldehyde, mean ± S.E.M. of triplicate experiments, read-out: RLAR IC50.
Where [8] appears, read: Dixon plots, single inhibition constant, read-out: HRAR Ki.

Read-outs that look alike come from different tables or passages of the source. Marks after values point to notes of the source that are not given here.

Regarding `CC(C)=CCC[C@](C)(O)[C@H]1CC[C@]2(C)[C@@H]1[C@H](O)C[C@@H]1[C@@]3(C)CC[C@H](O)C(C)(C)[C@@H]3[C@@H](O[C@@H]3O[C@H](CO)[C@@H](O)[C@H](O)[C@H]3O)C[C@]12C` [Ginsenoside Rh1], the IC50 in assay [1] came out at 4.66 ± 0.34 µM. This compound also registered a 50% inhibitory concentration (IC50) in assay [2] of 7.28 ± 0.27 µM. In assay [3], the “Sorbitol Content (mg)/Lens Wet Weight (g)” value (“Sorbitol Content” below) is 0.10 ± 0.01 ^a mg/g and the inhibition at 5 µg/mL came to 94.2 ± 4.71%. For the same compound, in assay [4], the Ki was found to be 5.39 µM and the “RLAR Mode of Inhibition” value was “Competitive type”. The “RLAR Mode of Inhibition” value in assay [4] (listed as Rh1) is on record as “competitive”. Besides, in assay [5], the Ki came to 3.4 µM and the “HRAR Mode of Inhibition” value is given as “Mixed type”. Also, in assay [5] (Dixon plots), the “HRAR Kiu (binding constant of inhibitor with enzyme-substrate complex)” value was found to be 8.31 µM.

`CC(C)=CCC[C@](C)(O)[C@H]1CC[C@]2(C)[C@@H]1[C@H](O)C[C@@H]1[C@@]3(C)CC[C@H](O[C@@H]4O[C@H](CO)[C@@H](O)[C@H](O)[C@H]4O)C(C)(C)[C@@H]3CC[C@]12C` [Ginsenoside Rh2]: the IC50 is 7.44 ± 0.55 µM in assay [1] and 0.67 ± 0.01 µM in assay [2]. Further, in assay [3], the “Sorbitol Content” value is 0.05 ± 0.01 ^a mg/g. The compound also had an inhibition at 5 µg/mL in assay [3] of 97.1 ± 5.41%. Moreover, the figures for the Ki in assay [4] and in assay [5] were 0.43 µM and 3.63 µM, respectively. Besides, the “RLAR Mode of Inhibition” value in assay [4] is “Competitive type”; in assay [4] (listed as Rh2) it was “competitive”. Also, the “HRAR Kiu (binding constant of inhibitor with enzyme-substrate complex)” value in assay [5] (Dixon plots) stood at 9.22 µM. In addition, in assay [5], the “HRAR Mode of Inhibition” value was “Mixed type”.

Regarding `CC(C)=CCC[C@](C)(O)C1CC[C@]2(C)[C@@H]1[C@H](O)CC1[C@@]3(C)CC[C@H](O)C(C)(C)C3CC[C@]12C` (stereo partly shown) [Protopanaxadiol], the results for the IC50 in assay [1] (setting [6]) and in assay [2] (setting [7]) were 0.36 ± 0.1 µM and 21.4 ± 2.45 µM, respectively. Besides, the “Sorbitol Content” value in assay [3] is 0.06 ± 0.01 ^a mg/g. Besides, in assay [3] (Rattus norvegicus), the inhibition at 5 µg/mL came to 96.5 ± 2.91%. The “RLAR Kiu (binding constant of inhibitor with enzyme-substrate complex)” value in assay [4] (Dixon plots) is 37.39 µM. For the same compound, the Ki in assay [4] (Dixon plots, read-out: RLAR Kic (binding constant of inhibitor with free enzyme)) turned out to be 18.8 µM; in assay [5] (setting [8]), 0.72 µM. Moreover, in assay [4], the “RLAR Mode of Inhibition” value was “Mixed type”. The “HRAR Mode of Inhibition” value in assay [5] was “Competitive type”; in assay [5] (listed as protopanaxadiol), “competitive”.

Take `CC(C)=CCC[C@](C)(O)[C@H]1CC[C@]2(C)[C@@H]1[C@H](O)C[C@@H]1[C@@]3(C)CC[C@H](O)C(C)(C)[C@@H]3[C@@H](O)C[C@]12C` [Protopanaxatriol]: the IC50 was 1.43 ± 0.14 µM in assay [1] (setting [6]) and 27.9 ± 1.19 µM in assay [2] (setting [7]). Besides, the “Sorbitol Content” value in assay [3] was 0.09 ± 0.01 ^a mg/g. The inhibition at 5 µg/mL in assay [3] (Rattus norvegicus) came out at 94.8 ± 3.46%. The Ki was 28.9 µM in assay [4] (Dixon plots, single inhibition constant, read-out: RLAR Ki) and 2.61 µM in assay [5] (setting [8]). Further, the entries for the “RLAR Mode of Inhibition” value in assay [4] and in assay [4] (listed as protopanaxatriol) were “Non-competitive type” and “non-competitive”, respectively. The “HRAR Mode of Inhibition” value in assay [5] is “Competitive type”; in assay [5] (listed as protopanaxatriol), “competitive”.

A word on the IC50: it is the midpoint of a concentration-inhibition curve. What is called inhibition is the change of the read-out against control, counted positive when it falls. Lower therefore signals a response near the control.
